Assay results as given in BigSolDB 2.1.

CN1C(C(=O)Nc2ccccn2)=C(O)c2sccc2S1(=O)=O
Settings | solubility (mole fraction)
in PEG-400, 298.15 K | 0.0098
in PEG-400, 303.15 K | 0.0134
in PEG-400, 308.15 K | 0.0178
in PEG-400, 313.15 K | 0.0228
in PEG-400, 323.15 K | 0.035

in water
Settings | solubility (mole fraction)
298.15 K | 4.13e-06
303.15 K | 5.1e-06
308.15 K | 6.62e-06
313.15 K | 8.49e-06
323.15 K | 1.4e-05
